Data published in patent US20140357512A1, “HISTONE DEACETYLASE (HDAC) BIOMARKERS IN MULTIPLE MYELOMA” (priority 2013, published 2014).

System: human myeloma cell line MM.1S
Assay: SILAC acetylated-lysine peptide profiling, HDAC inhibitor vs DMSO (light/heavy ratio)
Format: cell-based
Source text: An embodiment of the invention comprises utilizing the SILAC method in order to quantitate changes in protein expression between two or more populations of cells. The SILAC method is a technique based on mass spectrometry that detects differences in protein abundance among samples using non-radioactive isotopic labeling. The SILAC method is known in the art, and described in detail in Ong et al., “Stable Isotope Labeling by Amino Acids in Cell Culture, SILAC, as a Simple and Accurate Approach to Expression Proteomics”, Molecular & Cellular Proteomics, vol. 1, pp. 376-386 (2002), which is incorporated herein by reference in its entirety.
Briefly, the SILAC method involves growing two populations of cells in cell culture. The first population of cells is grown in growth media containing normal amino acids (“normal media”). The second population of cells is grown in media lacking a standard essential amino acid (such as lysine), but is then supplemented with a non-radioactive, isotopically labeled form of that essential amino acid (such as lysine labeled with ^13C atoms, rather than normal ^12C atoms), which is called “heavy media”. When the two populations of cells are each growing in the medium, they incorporate the amino acids into all of their proteins. The growth of cells maintained in the heavy media is no different from that in normal media. All peptides containing the heavy amino acids are heavier than their normal counterparts. The cells from each of the two populations of cells are lysed. The lysates from each of the two cell populations are then combined. The combined cell lysates are then analyzed by mass spectrometry. Pairs of chemically identical peptides of different stable isotope composition can be differentiated in a mass spectrometer due to their difference in mass. The ratio of peak intensities in the mass spectrum for such peptide pairs reflects the abundance ratio for the two proteins.
This example describes SILAC studies that were performed to compare the effects of three different HDAC inhibitors (Compound A, Compound B, and tubastatin A) to a control on a human multiple myeloma cell line. The HDAC inhibitors were also compared amongst themselves to determine differences in their effects.
A human myeloma cell line MM.1S was grown using either ^12C (light) or ^13C (heavy) lysine containing culture medium. The “heavy” cells were treated with DMSO as the control, and the “light” cells were treated with a single HDAC inhibitor at 37° C. for 6 hours. The heavy and light cells were lysed, and the lysates were mixed in 1:1 ratio and digested with the protease trypsin. The acetylated lysine containing peptides (due to the action of the HDAC inhibitor) in the digested peptide pool were captured by a non-specific anti-acetylated lysine antibody cocktail (the antibodies identify both light and heavy acetylated peptides), and subjected to mass spectrometry analysis in order to identify thousands of individual peptides.
Thousands of peptides were identified in pairs (^12C and ^13C) due to their known mass differences. The amino acid sequence and quantitative ratio (Light/Heavy) of a given peptide in two differentially treated cell lysates were then determined and annotated with their possible protein (gene) sources.
As stated above, three HDAC inhibitors (Compound A, Compound B, and Tubastatin A) were used. Thus, the SILAC method was performed three times, with a different HDAC inhibitor compared to a control each time. Accordingly, there are three pairs of quantitative data in the table below, i.e., Compound A:DMSO, Compound B:DMSO, and Tubastatin A:DMSO. A cut-off of 1.30 fold of change (increase or decrease) was then used to determine “changed” or “+” in the table, and any peptides with a fold of change less than 1.3 fold were determined to be “unchanged” or “0” in the table. Those peptides that were not identified were marked as “NA” in the table. […]

In the case of `O=C(NO)c1cnc(NC2(c3cccc(F)c3)CCCCC2)nc1` [Compound B, 2-((1-(3-fluorophenyl)cyclohexyl)amino)-N-hydroxypyrimidine-5-carboxamide], the “light to heavy ratio (L/H ratio) of acetylated peptide TNFSNEK(ac)TISK (SEQ ID NO: 357)” value (Acylphosphatase-2 [113], ACYP2, drug:DMSO) is reported as 0.84 log 2, the “light to heavy ratio (L/H ratio), log 2 scale, acetylated peptide SELTGK(ac)FEK (SEQ ID NO: 778)” value (Annexin A5 [76], gene ANXA5, drug:DMSO) is reported as 0.00 and the “light to heavy ratio (L/H ratio) of acetylated peptide TKYEK(ac)SLYSMIK (SEQ ID NO: 270)” value (Annexin A6 [299], ANXA6, drug:DMSO) is reported as 0.00 log 2. For the same molecule, the “light to heavy ratio (L/H ratio) of acetylated peptide AINEAYK(ac)EDYHK (SEQ ID NO: 282)” value (Annexin A6 [478], ANXA6, drug:DMSO) was 0.00 log 2, the “light to heavy ratio (L/H ratio) of acetylated peptide NKPLFFADK(ac)LYK (SEQ ID NO: 298)” value (Annexin A6 [607], ANXA6, drug:DMSO) was 0.00 log 2 and the “light to heavy ratio (L/H ratio) of acetylated peptide GAGTDEK(ac)TLTR (SEQ ID NO: 621)” value (Annexin A6 [620], gene ANXA6, inhibitor:DMSO) was 0.00 log 2. The “light to heavy ratio (L/H ratio), log 2 scale, acetylated peptide EFIEK(ac)YDK (SEQ ID NO: 779)” value (Annexin A6 [644], gene ANXA6, drug:DMSO) was 0.00, the “light to heavy ratio (L/H ratio) of acetylated peptide DDNGK(ac)PYVLPSVR (SEQ ID NO: 579)” value (Aspartate aminotransferase mitochondrial [73], gene GOT2, inhibitor:DMSO) was 0.00 log 2 and the “light to heavy ratio (L/H ratio) of acetylated peptide LVGELK(ac)LDR (SEQ ID NO: 367)” value (Bactericidal/permeability-increasing protein [237], BPI, drug:DMSO) was −0.52 log 2. For the same molecule, the “light to heavy ratio (L/H ratio) of acetylated peptide ELK(ac)EIQYGIR (SEQ ID NO: 540)” value (Branched-chain-amino-acid aminotransferase [337], gene BCAT2, inhibitor:DMSO) was 0.00 log 2, the “L/H ratio of acetylated peptide FYGDEEK(ac)[…] (SEQ ID NO: 25)” value (CALR [62], log 2 scale, drug vs DMSO) was 0.00 and the “light to heavy ratio (L/H ratio) of acetylated peptide AGLQVYNK(ac)CWK (SEQ ID NO: 260)” value (CD59 glycoprotein [63], CD59, drug:DMSO) was 0.00 log 2. The “L/H ratio of acetylated peptide” value (CHAFEK(ac)[…] (SEQ ID NO: 425), NADH dehydrogenase [ubiquinone] iron-sulfur protein 5 [38], NDUFS5) was −0.63 log 2, the “L/H ratio of acetylated peptide […](ac)R (SEQ ID NO: 26)” value (CLTC [637], log 2 scale, drug vs DMSO) was 0.00 and the “L/H ratio of acetylated peptide FK(ac)ESFAEMNR (SEQ ID NO: 1)” value (COX4I1 [87], log 2 scale, drug vs DMSO) was −0.67. For the same molecule, the “L/H ratio of acetylated peptide […](ac)QLCTIPR (SEQ ID NO: 27)” value (CREBBP [1216], log 2 scale, drug vs DMSO) was 0.00, the “L/H ratio of acetylated peptide TNK(ac)NK(ac)SSISR (SEQ ID NO: 13)” value (CREBBP [1595:1597], log 2 scale, drug vs DMSO) was 0.62 and the “L/H ratio of acetylated peptide ALK(ac)DLYCHK (SEQ ID NO: 28)” value (CREM [240], log 2 scale, drug vs DMSO) was 0.00. For the same molecule, the “L/H ratio of acetylated peptide LYCPK(ac)CMDVYTPK (SEQ ID NO: 29)” value (CSNK2B [139], log 2 scale, drug vs DMSO) was 0.00, the “light to heavy ratio (L/H ratio) of acetylated peptide NSFDCFK(ac)K (SEQ ID NO: 605)” value (Calcium-binding mitochondrial carrier protein Aralar2 [379], gene SLC25A13, inhibitor:DMSO) was 0.00 log 2 and the “light to heavy ratio (L/H ratio) of acetylated peptide FVLSSGK(ac)FYGDEEKDK (SEQ ID NO: 281)” value (Calreticulin [55], CALR, drug:DMSO) was 0.00 log 2. For the same molecule, the “light to heavy ratio (L/H ratio) of acetylated peptide NVLINK(ac)DIR (SEQ ID NO: 257)” value (Calreticulin [159], CALR, drug:DMSO) was 0.00 log 2, the “light to heavy ratio (L/H ratio) of acetylated peptide […](ac)GLLK (SEQ ID NO: 569)” value (Chloride intracellular channel protein 1 [131], gene CLIC1, inhibitor:DMSO) was 0.00 log 2 and the “light to heavy ratio (L/H ratio) of acetylated peptide SMSTEGLMK(ac)FVDSK (SEQ ID NO: 330)” value (Citrate synthase mitochondrial [459], CS, drug:DMSO) was 0.76 log 2. For the same molecule, the “light to heavy ratio (L/H ratio), log 2 scale, acetylated peptide MIYASSK(ac)DAIKK (SEQ ID NO: 763)” value (Cofilin-1 [121], gene CFL1, drug:DMSO) was 0.00, the “light to heavy ratio (L/H ratio) of acetylated peptide AAEEVEAK(ac)FK (SEQ ID NO: 328)” value (Coiled-coil-helix-coiled-coil-helix domain-containing protein 3 mitochondrial [173], CHCHD3, drug:DMSO) was −0.42 log 2 and the “light to heavy ratio (L/H ratio) of acetylated peptide ASEIGEK(ac)YR (SEQ ID NO: 586)” value (Conserved hypothetical protein [484], gene KIAA0947, inhibitor:DMSO) was 0.00 log 2. For the same molecule, the “light to heavy ratio (L/H ratio) of acetylated peptide DHCVAHK(ac)LFNNLK (SEQ ID NO: 608)” value (Cytochrome b-c1 complex subunit 6 mitochondrial [85], gene UQCRH, inhibitor:DMSO) was 0.00 log 2, the “light to heavy ratio (L/H ratio) of acetylated peptide YFDEK(ac)IAK (SEQ ID NO: 563)” value (D-beta-hydroxybutyrate dehydrogenase mitochondrial [280], gene BDH1, inhibitor:DMSO) was 0.00 log 2 and the “L/H ratio of acetylated peptide FK(ac)[…] (SEQ ID NO: 30)” value (DAZAP1 [59], log 2 scale, drug vs DMSO) was 0.00. For the same molecule, the “L/H ratio of acetylated peptide APTIVGK(ac)SSLNPILFR (SEQ ID NO: 31)” value (DDOST [189], log 2 scale, drug vs DMSO) was 0.00 and the “L/H ratio of acetylated peptide DWVLNEFK(ac)HGK (SEQ ID NO: 33)” value (DDX5 [388], log 2 scale, drug vs DMSO) was 0.00.
